Results from patent publication US20210077500A1, “PIKFYVE INHIBITORS FOR CANCER THERAPY” (Al Therapeutics, Inc., priority 2019, published 2021).

Columns and labels:
GP5d = assay: CellTiter-Glo cell viability, single agent and combination (Chou-Talalay CI); type: cell-based; settings: Homo sapiens, 120 h, GP5d (colorectal, KRAS G12D), average of two independent experiments
Experimental: (§1) For assessment of synergistic activity, cells of each cell line were seeded at optimal density for growth onto different 96-well plates and placed into a humidified incubator (37° C., 5% CO2) to adhere overnight. The following day, the cells on each plate were treated either with a single agent (a PIKfyve inhibitor, e.g., apilimod, or a RAS pathway inhibitor) or with a combination of the two agents. Cells were treated for 120 hours and then assayed for cell viability using CellTiter-Glo™ (Promega).
(§2) Using this method, a CI value is calculated based on the effects of each drug alone on cell viability (single agent treatment) and the effects of each drug combination, across all combinations of both agents tested. The single agent treatments consisted of 8 different concentrations of each single agent, obtained by serial dilution. The concentrations were chosen to provide a range above and below the IC50 value of the single agent (if achieved) in a given cell line.
(§3) D1 alone and D2 alone were estimated from Hill's equation:

LS411N = assay: as above; type: cell-based; settings: LS411N (colorectal, BRAF V600E); 120 h; average of two independent experiments
Experimental: as §1, §2, §3

BxPC3 = assay: CellTiter-Glo cell viability, single agent; type: cell-based; settings: Homo sapiens, BXPC-3; BxPC3 (pancreatic, BRAF delV487-P492); 120 h; average of two independent experiments
Experimental: The cell lines used in this study were derived from lung cancers, colorectal cancers, pancreatic cancer and melanoma, as shown in Table 2 below.
(§4) For assessment of synergistic activity, cells of each cell line were seeded at optimal density for growth onto different 96-well plates and placed into a humidified incubator (37° C., 5% CO2) to adhere overnight. […] Cells were treated for 120 hours and then assayed for cell viability using CellTiter-Glo™ (Promega).

NCI-H820 = assay: 5-day viability assay; type: cell-based; settings: 120 h, NCI-H820 (NSCLC, MET AMP), two independent experiments
SBC-5 = assay: 5-day viability assay; type: cell-based; settings: Homo sapiens, 120 h, SBC-5 (SCLC, MET AMP), two independent experiments
NCI-H596 = assay: 5-day viability assay; type: cell-based; settings: Homo sapiens, 120 h, NCI-H596 (NSCLC, MET Exon 14), two independent experiments
NCI-H1993 = assay: 5-day viability assay; type: cell-based; settings: Homo sapiens, 120 h, NCI-H1993 (NSCLC, MET AMP), two independent experiments
NCI-H2023 = assay: 5-day viability assay; type: cell-based; settings: 120 h, NCI-H2023 (NSCLC, Autocrine), two independent experiments
Hs746T = assay: 5-day viability assay; type: cell-based; settings: Homo sapiens, 120 h, Hs746T (gastric, AMP, Exon 14), two independent experiments
SNU-5 = assay: 5-day viability assay; type: cell-based; settings: Homo sapiens, 120 h, SNU-5 (gastric, MET AMP), two independent experiments
COLO-205 = assay: 5-day CellTiter-Glo viability sensitivity screen; type: cell-based; settings: Homo sapiens, 120 h; COLO-205 colorectal; 5-day viability assays; read-out: IC50 (sensitive/resistant cut-off)
SW1116 = assay: 5-day CellTiter-Glo viability sensitivity screen; type: cell-based; settings: Homo sapiens, SW 1116, 120 h; SW1116 colorectal (KRAS p.G12A); 5-day viability assays; read-out: IC50 (sensitive/resistant cut-off)
HCT116 = assay: 5-day CellTiter-Glo viability sensitivity screen; type: cell-based; settings: Homo sapiens, HCT-116, 120 h; HCT116 colorectal (KRAS p.G13D); 5-day viability assays; read-out: IC50 (sensitive/resistant cut-off)
SW620 = assay: 5-day CellTiter-Glo viability sensitivity screen; type: cell-based; settings: Homo sapiens, SW-620, 120 h; SW620 colorectal (KRAS p.G12V); 5-day viability assays; read-out: IC50 (sensitive/resistant cut-off)
SW480 = assay: 5-day CellTiter-Glo viability sensitivity screen; type: cell-based; settings: Homo sapiens, 120 h; SW480 colorectal (KRAS p.G12V); 5-day viability assays; read-out: IC50 (sensitive/resistant cut-off)
DLD1 = assay: 5-day CellTiter-Glo viability sensitivity screen; type: cell-based; settings: Homo sapiens, DLD-1, 120 h; DLD1 colorectal (KRAS p.G13D); 5-day viability assays; read-out: IC50 (sensitive/resistant cut-off)
MDST8 = assay: 5-day CellTiter-Glo viability sensitivity screen; type: cell-based; settings: 120 h; MDST8 colorectal; 5-day viability assays; read-out: IC50 (sensitive/resistant cut-off)
SW1417 = assay: 5-day CellTiter-Glo viability sensitivity screen; type: cell-based; settings: Homo sapiens, 120 h; SW1417 colorectal; 5-day viability assays; read-out: IC50 (sensitive/resistant cut-off)
COLO-741 = assay: 5-day CellTiter-Glo viability sensitivity screen; type: cell-based; settings: Homo sapiens, 120 h; COLO-741 colorectal; 5-day viability assays; read-out: IC50 (sensitive/resistant cut-off)
[1] = test system: colorectal cancer cell lines; assay: Sensitivity screen, share of sensitive cell lines; type: cell-based; settings: nine out of 14 cell lines; 5-day CellTiter-Glo viability
[2] = test system: cell lines harboring MET pathway activation; assay: 5-day viability assay, share of sensitive cell lines; type: cell-based; settings: 6/10 cell lines
EBC-1 = assay: 5-day viability assay, single agent and combination (Chou-Talalay CI); settings: Homo sapiens, EBC-1, 120 h, read-out: Average IC50, EBC-1 (NSCLC, MET AMP); 5-day viability assay; two independent experiments
Experimental: as §1, §2, §3
(§5) Here, we utilized cells harboring MET pathway activation, particularly the EBC-1, MKN45 and Caki-1 cell lines. In addition to MET inhibitors, since MET activates the RAS pathway, we also assayed for synergistic activity with inhibitors of the RAS pathway in these cells.

MKN45 = assay: as above; settings: Homo sapiens, MKN-45, 120 h, read-out: Average IC50, MKN45 (gastric, MET AMP); 5-day viability assay; two independent experiments
Experimental: as §1, §2, §3, §5

Caki-1 = assay: as above; settings: Homo sapiens, CAKI-1, 120 h, read-out: Average IC50
Experimental: as §1, §2, §3, §5

A549 = assay: CellTiter-Glo cell viability, single agent and combination (Chou-Talalay CI); settings: Homo sapiens, A549, 120 h, read-out: IC50 (single agent)
Experimental: as §4, §2

NCI-H1944 = assay: as above; settings: Homo sapiens, NCI-H1944, 120 h, read-out: IC50 (single agent)
Experimental: as §4, §2

NCI-H2030 = assay: as above; settings: Homo sapiens, NCI-H2030, 120 h, read-out: IC50 (single agent)
Experimental: as §4, §2

NCI-H1792 = assay: as above; settings: Homo sapiens, NCI-H1792, 120 h, read-out: IC50 (single agent)
Experimental: as §4, §2

NCI-H2122 = assay: as above; settings: Homo sapiens, NCI-H2122, 120 h, read-out: IC50 (single agent)
Experimental: as §4, §2

A427 = assay: as above; settings: Homo sapiens, A-427, 120 h, read-out: IC50 (single agent)
Experimental: as §4, §2

RKO cells = assay: as above; settings: Homo sapiens
Experimental: as §1, §2
In each experiment for a given cell line, the combination treatments consisted of 8×8 or 64 different combination treatments.
Using this method, combinations with CI values>1 are considered antagonistic, CI values=1 are considered additive, and CI values<1 are considered synergistic.

A375 = assay: as above; settings: Homo sapiens, A-375, 120 h, read-out: IC50 (single agent)
Experimental: as §4, §2

[3] = read-out: Viability (normalized)

What does the source list for `Cc1cccc(/C=N/Nc2cc(N3CCOCC3)nc(OCCc3ccccn3)n2)c1` [apilimod]?
IC50 (GP5d): 0.209 µM; IC50 (LS411N): 0.089 µM; IC50 (BxPC3): > 0.4 µM; IC50 (NCI-H820): 0.103 µM; IC50 (SBC-5): 0.108 µM; IC50 (NCI-H596): 0.304 µM; IC50 (NCI-H1993): 0.877 µM; IC50 (NCI-H2023): 0.073 µM; IC50 (Hs746T): 0.108 µM; IC50 (SNU-5): 0.862 µM; IC50 (COLO-205): < 0.2 µM; IC50 (SW1116): < 0.2 µM; IC50 (HCT116): < 0.2 µM; IC50 (SW620): < 0.2 µM; IC50 (SW480): < 0.2 µM; IC50 (DLD1): < 0.2 µM; IC50 (MDST8): > 0.2 µM; IC50 (SW1417): > 0.2 µM; IC50 (COLO-741): > 0.2 µM; colorectal cancer cell lines sensitive to apilimod (average IC50 less than 200 nM) [1]: 64%; cell lines harboring MET pathway activation sensitive to apilimod (IC50 less than 200 nM) [2]: 60%; IC50 (EBC-1): 0.113 µM; IC50 (MKN45): 0.191 µM; IC50 (Caki-1): 0.373 µM; IC50 (A549): 0.049 µM; IC50 (NCI-H1944): 0.036 µM; IC50 (NCI-H2030): 0.228 µM; IC50 (NCI-H1792): > 0.4 µM; IC50 (NCI-H2122): > 0.4 µM; IC50 (A427): 0.08 µM; IC50 (RKO cells; 120 h, read-out: IC50 (single agent), RKO (colorectal, BRAF V600E), 120 h, average of two independent experiments): > 0.2 µM; viability at 0.023 µM (RKO cells; [3]): 98%; viability at 0.035 µM (RKO cells; [3]): 93%; viability at 0.053 µM (RKO cells; [3]): 96%; viability at 0.079 µM (RKO cells; [3]): 93%; viability at 0.119 µM (RKO cells; [3]): 97%; viability at 0.178 µM (RKO cells; [3]): 70%; viability at 0.267 µM (RKO cells; [3]): 53%; viability at 0.4 µM (RKO cells; [3]): 44%; IC50 (A375): 0.104 µM
